This note sets out measurements from patent US11066357B2, “Benzoannulene derivatives as antiviral agents” (Southern Research Institute, priority 2017, dated 2021).

Series [1] is described as follows: cytotoxicity (CC50), Table 1.
The subject of the next series is CHIKV. Put plainly: antiviral activity (EC50), Table 1. The class given is cell-based. Particulars: Chikungunya virus.

`COc1cc2c(cc1C(=O)Nc1ccc(C(C)(C)C)cc1)CCCCC2` [Compound 1, N-(4-(tert.-butyl)phenyl)-3-methoxy-6,7,8,9-tetrahydro-5H-benzo[7]annulene-2-carboxamide] displayed a 50% cytotoxic concentration (CC50) in series [1] above 40 µM. This molecule also came in with an EC50 with CHIKV of 0.32 µM.
On to `CC(C)(C)c1ccc(NC(=O)c2cc3c(cc2O)CCCCC3)cc1` [Compound 2, N-(4-(tert.-butyl)phenyl)-3-hydroxy-6,7,8,9-tetrahydro-5H-benzo[7]annulene-2-carboxamide], for which, in series [1], the CC50 was 9.8 µM. In the series on CHIKV, this molecule registered an EC50 of 1.1 µM.
On the same counts, the results for `CC(C)(C)c1ccc(NC(=O)c2ccc3c(c2)CCCCC3)cc1` [Compound 3, N-(4-(tert.-butyl)phenyl)-6,7,8,9-tetrahydro-5H-benzo[7]annulene-2-carboxamide] are above 40 µM and 1.09 µM.
Turning to `COc1cc2c(cc1C(=O)Nc1cc(C)n(C(C)(C)C)n1)CCCCC2` [Compound 4, N-(1-(tert.-butyl)-5-methyl-1H-pyrazol-3-yl)-3-methoxy-6,7,8,9-tetrahydro-5H-benzo[7]annulene-2-carboxamide], in series [1], it took 22.3 µM to reach half-maximal cytotoxicity (CC50). A half-maximal effect in the series with CHIKV (EC50) was put at 3.9 µM.
On the same counts, the results for `CCn1nc(NC(=O)c2cc3c(cc2OC)CCCCC3)cc1C` [Compound 5, N-(1-ethyl-5-methyl-1H-pyrazol-3-yl)-3-methoxy-6,7,8,9-tetrahydro-5H-benzo[7]annulene-2-carboxamide] are above 40 µM and 9.9 µM.
The matching figures for `CCn1nc(C(F)(F)F)c(NC(=O)c2cc3c(cc2OC)CCCCC3)c1C` [Compound 6, N-(1-ethyl-5-methyl-3-(trifluoromethyl)-1H-pyrazol-4-yl)-3-methoxy-6,7,8,9-tetrahydro-5H-benzo[7]annulene-2-carboxamide]: above 40 µM and 35.2 µM.
Consider `COc1cc2c(cc1C(=O)Nc1ccc(C(C)(C)C)s1)CCCCC2` [Compound 7, N-(5-(tert.-butyl)thiophen-2-yl)-3-methoxy-6,7,8,9-tetrahydro-5H-benzo[7]annulene-2-carboxamide], for which, in series [1], the CC50 is above 40 µM. In the series on CHIKV, the EC50 is above 40 µM.
In turn, `COc1cc2c(cc1C(=O)Nc1ncc(C(C)(C)C)s1)CCCCC2` [Compound 8, N-(5-(tert.-butyl)thiazol-2-yl)-3-methoxy-6,7,8,9-tetrahydro-5H-benzo[7]annulene-2-carboxamide] came in with a CC50 in series [1] above 40 µM. This molecule also yielded an EC50 with CHIKV of 9.63 µM.
Regarding `COc1cc2c(cc1C(=O)Nc1cnc(C(C)(C)C)s1)CCCCC2` [Compound 9, N-(2-(tert.-butyl)thiazol-5-yl)-3-methoxy-6,7,8,9-tetrahydro-5H-benzo[7]annulene-2-carboxamide], the half-maximal cytotoxic concentration (CC50) in series [1] is above 40 µM. Besides, the EC50 in the series with CHIKV is above 40 µM.
On to `COc1cc2c(cc1C(=O)Nc1ccc(C(C)(C)O)cc1)CCCCC2` [Compound 10, N-(4-(2-hydroxypropan-2-yl)phenyl)-3-methoxy-6,7,8,9-tetrahydro-5H-benzo[7]annulene-2-carboxamide], for which it took 24.9 µM to reach half-maximal cytotoxicity in series [1] (CC50). In the series on CHIKV, this molecule registered an EC50 of 1.8 µM.
`COc1cc2c(cc1C(=O)Nc1ccc(C(C)(C)C)cn1)CCCCC2` [Compound 11, N-(5-(tert.-butyl)pyridin-2-yl)-3-methoxy-6,7,8,9-tetrahydro-5H-benzo[7]annulene-2-carboxamide] showed a CC50 in series [1] above 40 µM. The EC50 in the series on CHIKV was 1.14 µM.
The matching figures for `COc1cc2c(cc1C(=O)Nc1ccc(C(O)(C(F)(F)F)C(F)(F)F)cc1)CCCCC2` [Compound 12, N-(4-(1,1,1,3,3,3-hexafluoro-2-hydroxypropan-2-yl)phenyl)-3-methoxy-6,7,8,9-tetrahydro-5H-benzo[7]annulene-2-carboxamide]: above 40 µM and above 40 µM.
On the same counts, the results for `COc1cc2c(cc1C(=O)Nc1sc(C(C)(C)C)cc1C#N)CCCCC2` [Compound 13, N-(5-(tert.-butyl)-3-cyanothiophen-2-yl)-3-methoxy-6,7,8,9-tetrahydro-5H-benzo[7]annulene-2-carboxamide] are above 40 µM and above 40 µM.
The matching figures for `COc1cc2c(cc1C(=O)Nc1ccc(OC(F)(F)F)cc1)CCCCC2` [Compound 14, 3-methoxy-N-(4-(trifluoromethoxy)phenyl)-6,7,8,9-tetrahydro-5H-benzo[7]annulene-2-carboxamide]: above 40 µM and above 40 µM.
For the molecule `COc1cc2c(cc1C(=O)Nc1ccc(-c3ccccc3)cc1)CCCCC2` [Compound 15, N-([1,1′-biphenyl]-4-yl)-3-methoxy-6,7,8,9-tetrahydro-5H-benzo[7]annulene-2-carboxamide], the CC50 in series [1] was above 40 µM. Further, in the series on CHIKV, the 50% effective concentration (EC50) was above 40 µM.
`COc1cc2c(cc1C(=O)Nc1ccc(-c3ccccc3)cn1)CCCCC2` [Compound 16, 3-methoxy-N-(5-phenylpyridin-2-yl)-6,7,8,9-tetrahydro-5H-benzo[7]annulene-2-carboxamide]: in series [1], the CC50 is above 40 µM. Also, the EC50 with CHIKV is above 40 µM.
Take `CC(C)(C)c1ccc(NC(=O)c2cc3c(cc2OC(F)F)CCCCC3)cc1` [Compound 17, N-(4-(tert.-butyl)phenyl)-3-(difluoromethoxy)-6,7,8,9-tetrahydro-5H-benzo[7]annulene-2-carboxamide]: the 50% cytotoxic concentration (CC50) in series [1] is above 40 µM. The same molecule had an EC50 in the series with CHIKV above 40 µM.
Take `COc1cc2c(cc1C(=O)NCc1ccc(C(C)(C)C)cc1)CCCCC2` [Compound 18, N-(4-(tert.-butyl)benzyl)-3-methoxy-6,7,8,9-tetrahydro-5H-benzo[7]annulene-2-carboxamide]: the CC50 in series [1] is above 40 µM. Besides, in the series with CHIKV, the EC50 came out at 3.5 µM.
The matching figures for `COc1cc2c(cc1C(=O)Nc1ccc(-c3cc[nH]n3)cc1)CCCCC2` [Compound 19, N-(4-(1H-pyrazol-3-yl)phenyl)-3-methoxy-6,7,8,9-tetrahydro-5H-benzo[7]annulene-2-carboxamide]: 23.2 µM and 3.65 µM.
`COc1cc2c(cc1C(=O)Nc1ccc(N3CCCS3(=O)=O)cc1)CCCCC2` [Compound 20, N-(4-(1,1-dioxidoisothiazolidin-2-yl)phenyl)-3-methoxy-6,7,8,9-tetrahydro-5H-benzo[7]annulene-2-carboxamide] had a CC50 in series [1] above 40 µM. Moreover, in the series with CHIKV, the half-maximal effective concentration (EC50) was above 5 µM.
On the same counts, the results for `CCOc1cc2c(cc1C(=O)Nc1ccc(C(C)(C)C)cc1)CCCCC2` [Compound 21, N-(4-(tert.-butyl)phenyl)-3-ethoxy-6,7,8,9-tetrahydro-5H-benzo[7]annulene-2-carboxamide] are above 40 µM and 29.9 µM.
`CCc1cc2c(cc1C(=O)Nc1ccc(C(C)(C)C)cc1)CCCCC2` [Compound 22, N-(4-(tert.-butyl)phenyl)-3-ethyl-6,7,8,9-tetrahydro-5H-benzo[7]annulene-2-carboxamide] gave a CC50 in series [1] above 40 µM. Besides, in the series on CHIKV, the concentration giving a half-maximal response (EC50) was above 40 µM.
For the molecule `CC(C)(C)c1ccc(NC(=O)c2cc3c(cc2O)CCCCC3)nc1` [Compound 23, N-(5-(tert.-butyl)pyridin-2-yl)-3-hydroxy-6,7,8,9-tetrahydro-5H-benzo[7]annulene-2-carboxamide], the CC50 in series [1] was above 40 µM. In the series on CHIKV, it took 3.8 µM to reach a half-maximal effect (EC50).
The matching figures for `COc1cc2c(cc1C(=O)Nc1ccc(C(C)(C)C#N)cc1)CCCCC2` [Compound 24, N-(4-(2-cyanopropan-2-yl)phenyl)-3-methoxy-6,7,8,9-tetrahydro-5H-benzo[7]annulene-2-carboxamide]: above 40 µM and 0.2 µM.
The matching figures for `COc1cc2c(cc1C(=O)Nc1cc(-c3ccccc3)[nH]n1)CCCCC2` [Compound 25, 3-methoxy-N-(5-phenyl-1H-pyrazol-3-yl)-6,7,8,9-tetrahydro-5H-benzo[7]annulene-2-carboxamide]: above 40 µM and above 40 µM.
The matching figures for `COc1cc2c(cc1C(=O)Nc1cc(C(C)(C)C)[nH]n1)CCCCC2` [Compound 26, N-(5-(tert.-butyl)-1H-pyrazol-3-yl)-3-methoxy-6,7,8,9-tetrahydro-5H-benzo[7]annulene-2-carboxamide]: 15.5 µM and 7.03 µM.
With `CCn1nc(NC(=O)c2cc3c(cc2O)CCCCC3)cc1C` [Compound 27, N-(1-ethyl-5-methyl-1H-pyrazol-3-yl)-3-hydroxy-6,7,8,9-tetrahydro-5H-benzo[7]annulene-2-carboxamide], in series [1], the CC50 is above 40 µM. For the same molecule, the EC50 with CHIKV was above 40 µM.
`CC(C)(C)c1ccc(NC(=O)c2cc3c(cc2O)NCCCC3)cc1` [Compound 28, N-(4-(tert.-butyl)phenyl)-8-hydroxy-2,3,4,5-tetrahydro-1H-benzo[b]azepine-7-carboxamide]: in series [1], the CC50 is above 40 µM. Also, in the series on CHIKV, it took 1.47 µM to reach a half-maximal effect (EC50).
On the same counts, the results for `COc1cc2c(cc1C(=O)Nc1ccc(C(C)(C)C)cc1)CCCCN2` [Compound 29, N-(4-(tert.-butyl)phenyl)-8-methoxy-2,3,4,5-tetrahydro-1H-benzo[b]azepine-7-carboxamide] are above 40 µM and 24.4 µM.
`COc1cc2c(cc1C(=O)NNc1ccc(C(C)(C)C)cc1)CCCCC2` [Compound 30]: the CC50 in series [1] is above 40 µM. Besides, the 50% effective concentration (EC50) in the series with CHIKV is above 40 µM.
For `COc1cc2c(cc1CC(=O)Nc1ccc(C(C)(C)C)cc1)CCCCC2` [Compound 31, N-(4-(tert.-butyl)phenyl)-2-(3-methoxy-6,7,8,9-tetrahydro-5H-benzo[7]annulen-2-yl)acetamide], the CC50 in series [1] was above 40 µM. This molecule showed an EC50 with CHIKV of 30.4 µM.
Molecule `COc1cc2c(cc1CC(=O)N1CCC(C(C)(C)C)CC1)CCCCC2` [Compound 32, 1-(4-(tert.-butyl)piperidin-1-yl)-2-(3-methoxy-6,7,8,9-tetrahydro-5H-benzo[7]annulen-2-yl)ethan-1-one] displayed a CC50 in series [1] of 17.3 µM. In the series with CHIKV, this molecule registered an EC50 of 12.6 µM.
Turning to `COc1cc2c(cc1CC(=O)N1CCC(F)(F)CC1)CCCCC2` [Compound 33, 1-(4,4-difluoropiperidin-1-yl)-2-(3-methoxy-6,7,8,9-tetrahydro-5H-benzo[7]annulen-2-yl)ethan-1-one], the 50% cytotoxic concentration (CC50) in series [1] is above 40 µM. In addition, the EC50 with CHIKV was above 40 µM.
